Measurements: ChEMBL document CHEMBL1201862, “PubChem BioAssay data set” (2004)
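Where inhibition never reached the appropriate level, the endpoint shown equals the highest concentration tested. Otherwise, values were interpolated linearly from a five-concentration, 48-hour dose response in 96-well plates. GI50 is the concentration that inhibits growth by half.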 Activity calls are given as the source filed them. Rule as the data show it: active = GI50 up to about 1.1 µM and inactive = higher.

Key:
Test in all cases: NCI-60 cell line screen, 48 h
HT-29 = system: HT-29
ACHN = system: ACHN
PC-3 = system: PC-3
OVCAR-8 = system: OVCAR-8
EKVX = system: EKVX
NCI-H460 = system: NCI-H460
CCRF-CEM = system: CCRF-CEM
UACC-257 = system: UACC-257
SN12C = system: SN12C
SK-MEL-2 = system: SK-MEL-2
MDA-MB-435 = system: MDA-MB-435
TK-10 = system: TK-10
NCI-H226 = system: NCI-H226
SR = system: SR
A498 = system: A498
T47D = system: T47D
M14 = system: M14
NCI-H522 = system: NCI-H522
MOLT-4 = system: MOLT-4
COLO 205 = system: COLO 205

Compound	GI50 (HT-29)	GI50 (ACHN)	GI50 (PC-3)	GI50 (OVCAR-8)	GI50 (EKVX)	GI50 (NCI-H460)	GI50 (CCRF-CEM)	GI50 (UACC-257)	GI50 (SN12C)	GI50 (SK-MEL-2)	GI50 (MDA-MB-435)	GI50 (TK-10)	GI50 (NCI-H226)	GI50 (SR)	GI50 (A498)	GI50 (T47D)	GI50 (M14)	GI50 (NCI-H522)	GI50 (MOLT-4)	GI50 (COLO 205)
O=C1c2ccccc2C(=O)c2c1oc1cc(O)c(Cl)cc21	1.95 µM (inactive)	7 µM (inactive)	10.4 µM (inactive)	7.38 µM (inactive)	8.75 µM (inactive)	3.04 µM (inactive)	8.71 µM (inactive)	2.33 µM (inactive)	7.98 µM (inactive)	1.99 µM (inactive)	1.81 µM (inactive)	20.9 µM (inactive)	14 µM (inactive)	11.8 µM (inactive)	19.7 µM (inactive)	16.5 µM (inactive)	3.1 µM (inactive)	9.42 µM (inactive)	12.3 µM (inactive)	1.72 µM (inactive)
Oc1c(O)c(Cc2ccccc2)c(Cc2ccccc2)c(Cc2ccccc2)c1Cc1ccccc1	> 10 µM (inactive)	> 10 µM (inactive)	> 10 µM (inactive)	> 10 µM (inactive)	> 10 µM (inactive)	> 10 µM (inactive)	> 10 µM (inactive)	> 10 µM (inactive)	> 10 µM (inactive)	> 10 µM (inactive)	> 10 µM (inactive)	> 10 µM (inactive)	> 10 µM (inactive)	> 10 µM (inactive)	> 10 µM (inactive)	> 10 µM (inactive)	> 10 µM (inactive)	> 10 µM (inactive)	> 10 µM (inactive)	> 10 µM (inactive)
CSc1ccc(-c2cc(-c3nc4ccccc4[nH]3)no2)cc1	24.8 µM (inactive)	25.2 µM (inactive)	32.6 µM (inactive)	35 µM (inactive)	24.7 µM (inactive)	18.4 µM (inactive)	18.4 µM (inactive)	30.2 µM (inactive)	50.2 µM (inactive)	20.4 µM (inactive)	18.5 µM (inactive)	36.6 µM (inactive)	40.5 µM (inactive)	23.6 µM (inactive)	30.8 µM (inactive)	5.77 µM (inactive)	20.4 µM (inactive)	20.3 µM (inactive)	8.34 µM (inactive)	23.9 µM (inactive)
Cc1ccc(NC(=O)CC(=O)n2nc(C)c(/N=N/c3cccc(C)c3)c2C)cc1	> 100 µM (inactive)	> 100 µM (inactive)	> 100 µM (inactive)	> 100 µM (inactive)	31 µM (inactive)	> 100 µM (inactive)	86.3 µM (inactive)	> 100 µM (inactive)	> 100 µM (inactive)	> 100 µM (inactive)	> 100 µM (inactive)	> 100 µM (inactive)	> 100 µM (inactive)	61.7 µM (inactive)	> 100 µM (inactive)	> 100 µM (inactive)	> 100 µM (inactive)	> 100 µM (inactive)	> 100 µM (inactive)	> 100 µM (inactive)
CNC(=O)/C=C/C1=CN2C(=O)c3ccc(C)c(O)c3NC(OC)C2C1 (stereo not given)	< 0.0143 µM (active)	0.0142 µM (active)	< 0.016 µM (active)	< 0.0141 µM (active)	0.0163 µM (active)	0.0135 µM (active)	< 0.0247 µM (active)	< 0.013 µM (active)	< 0.01 µM (active)	0.0125 µM (active)	< 0.0133 µM (active)	0.0142 µM (active)	0.0141 µM (active)	< 0.0156 µM (active)	0.0533 µM (active)	< 0.0181 µM (active)	< 0.0124 µM (active)	< 0.0128 µM (active)	0.0183 µM (active)	0.0136 µM (active)
COC1CC(C)(N)C(O)C(C)O1 (stereo not given)	> 100 µM (inactive)	> 100 µM (inactive)	> 100 µM (inactive)	> 100 µM (inactive)	> 100 µM (inactive)	> 100 µM (inactive)	> 100 µM (inactive)	> 100 µM (inactive)	> 100 µM (inactive)	> 100 µM (inactive)	> 100 µM (inactive)	> 100 µM (inactive)	> 100 µM (inactive)	> 100 µM (inactive)	> 100 µM (inactive)	> 100 µM (inactive)	> 100 µM (inactive)	> 100 µM (inactive)	> 100 µM (inactive)	> 100 µM (inactive)
O=C(O)CNCP(=O)(O)O [GLYPHOSATE]	> 100 µM (inactive)	> 100 µM (inactive)	> 100 µM (inactive)	> 100 µM (inactive)	> 100 µM (inactive)	> 100 µM (inactive)	> 100 µM (inactive)	> 100 µM (inactive)	> 100 µM (inactive)	> 100 µM (inactive)	> 100 µM (inactive)	> 100 µM (inactive)	> 100 µM (inactive)	> 100 µM (inactive)	> 100 µM (inactive)	> 100 µM (inactive)	> 100 µM (inactive)	> 100 µM (inactive)	> 100 µM (inactive)	> 100 µM (inactive)
